In ChEMBL document CHEMBL1156007, “mu-Opioid/5-HT4 dual pharmacologically active agents-efforts towards an effective opioid analgesic with less GI and respiratory side effects (Part I)” (Bioorg Med Chem Lett, 2009):

What was measured:
[1] = molecular target: T1, 5-hydroxytryptamine receptor 3A (Homo sapiens, UniProt P46098); experiment: Displacement of [3H]granisetron from human recombinant 5-HT3 receptor expressed in HEK293 cells; format: cell-based
T1 sequence (P46098 whole entry): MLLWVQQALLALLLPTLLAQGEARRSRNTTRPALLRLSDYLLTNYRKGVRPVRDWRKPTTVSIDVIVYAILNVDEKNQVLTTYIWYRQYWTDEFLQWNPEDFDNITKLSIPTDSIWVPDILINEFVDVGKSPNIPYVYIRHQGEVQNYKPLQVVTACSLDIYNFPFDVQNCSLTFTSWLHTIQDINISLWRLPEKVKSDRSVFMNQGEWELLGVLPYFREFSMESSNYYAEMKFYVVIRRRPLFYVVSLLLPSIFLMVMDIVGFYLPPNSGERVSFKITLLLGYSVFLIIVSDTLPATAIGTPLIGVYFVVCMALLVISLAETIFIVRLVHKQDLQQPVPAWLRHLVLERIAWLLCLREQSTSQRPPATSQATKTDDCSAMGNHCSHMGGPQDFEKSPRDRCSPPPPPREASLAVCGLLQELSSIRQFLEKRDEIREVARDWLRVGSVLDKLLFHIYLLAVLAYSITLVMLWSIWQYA

[2] = molecular target: T2, 5-hydroxytryptamine receptor 4 (Homo sapiens, UniProt Q13639); experiment: Displacement of [3H]GR-113808 from human recombinant 5-HT4 receptor
Mu-type opioid receptor = Mu-type opioid receptor (Homo sapiens, UniProt P35372); experiment: Binding affinity to human mu opioid receptor
[3] = molecular target: T2, 5-hydroxytryptamine receptor 4; experiment: Agonist activity at human recombinant 5-HT4 receptor; format: functional
[4] = molecular target: T1, 5-hydroxytryptamine receptor 3A; experiment: Antagonist activity at human recombinant 5-HT3 receptor expressed in HEK293 cells; format: functional, cell-based

Sequence of Mu-type opioid receptor (P35372 whole entry): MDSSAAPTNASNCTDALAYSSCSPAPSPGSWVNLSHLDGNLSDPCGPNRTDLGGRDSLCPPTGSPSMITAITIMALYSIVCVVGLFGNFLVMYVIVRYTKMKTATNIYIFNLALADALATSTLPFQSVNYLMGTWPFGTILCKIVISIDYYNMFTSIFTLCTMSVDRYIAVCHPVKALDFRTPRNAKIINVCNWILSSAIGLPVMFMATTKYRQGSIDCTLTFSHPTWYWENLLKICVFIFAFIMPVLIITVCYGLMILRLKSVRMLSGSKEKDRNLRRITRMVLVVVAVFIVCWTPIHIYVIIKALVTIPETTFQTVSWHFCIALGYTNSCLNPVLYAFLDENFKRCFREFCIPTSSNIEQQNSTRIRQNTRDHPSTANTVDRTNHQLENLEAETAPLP
T2 sequence (Q13639 whole entry): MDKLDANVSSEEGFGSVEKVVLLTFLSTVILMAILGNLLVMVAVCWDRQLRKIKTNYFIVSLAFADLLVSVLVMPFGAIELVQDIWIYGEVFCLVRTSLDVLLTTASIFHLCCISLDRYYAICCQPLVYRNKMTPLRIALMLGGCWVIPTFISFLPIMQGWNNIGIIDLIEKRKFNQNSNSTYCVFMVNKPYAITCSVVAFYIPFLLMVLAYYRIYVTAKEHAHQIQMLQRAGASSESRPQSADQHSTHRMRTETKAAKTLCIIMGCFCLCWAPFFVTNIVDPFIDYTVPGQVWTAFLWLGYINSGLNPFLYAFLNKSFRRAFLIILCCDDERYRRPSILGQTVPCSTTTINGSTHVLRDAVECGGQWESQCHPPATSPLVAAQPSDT

COc1cc(N)c(Cl)cc1C(=O)NCCN(C)C[C@H]1CCCC[C@]1(O)c1cccc(O)c1
IC50 [1]: 3100 nM | IC50 [2]: > 10000 nM | IC50 (Mu-type opioid receptor): 340 nM

COc1cccc([C@@]2(O)CCCC[C@@H]2CN2CC[C@H](NC(=O)c3cc(Cl)c(N)cc3OC)[C@H](OC)C2)c1
IC50 [1]: 790 nM | IC50 [2]: 6100 nM | IC50 (Mu-type opioid receptor): > 10000 nM

COc1cccc([C@]2(O)CCCC[C@H]2CN2CC[C@H](NC(=O)c3cc(Cl)c(N)cc3OC)[C@H](OC)C2)c1
IC50 [1]: 1700 nM | IC50 [2]: 4600 nM | IC50 (Mu-type opioid receptor): > 10000 nM

COc1cc(N)c(Cl)cc1C(=O)N[C@@H]1CCN(C[C@H]2CCCC[C@]2(O)c2cccc(O)c2)C[C@@H]1OC
IC50 [1]: 1600 nM | IC50 [2]: > 10000 nM | IC50 (Mu-type opioid receptor): > 10000 nM

COc1cccc([C@]2(O)CCCC[C@H]2CN2CC[C@@H](NC(=O)c3cc(Cl)c(N)cc3OC)[C@@H](OC)C2)c1
IC50 [1]: 159 nM | IC50 [2]: 3900 nM | IC50 (Mu-type opioid receptor): > 10000 nM | EC50 [3]: 120 nM | EC50 [4]: > 10000 nM

COc1cccc([C@@]2(O)CCCC[C@@H]2CN(C)CCNC(=O)c2cc(Cl)c(N)cc2OC)c1
IC50 [1]: 3500 nM | IC50 [2]: 5000 nM | IC50 (Mu-type opioid receptor): 4500 nM

COc1cc(N)c(Cl)cc1C(=O)NCCN(C)C[C@@H]1CCCC[C@@]1(O)c1cccc(O)c1
IC50 [1]: 2500 nM | IC50 [2]: > 10000 nM | IC50 (Mu-type opioid receptor): 5100 nM

COc1cc(N)c(Cl)cc1C(=O)N[C@@H]1CCN(C[C@@H]2CCCC[C@@]2(O)c2cccc(O)c2)C[C@@H]1OC
IC50 [1]: 1400 nM | IC50 [2]: > 10000 nM | IC50 (Mu-type opioid receptor): > 10000 nM

COc1cccc([C@@]2(O)CCCC[C@@H]2CN2CC[C@@H](NC(=O)c3cc(Cl)c(N)cc3OC)[C@@H](OC)C2)c1
IC50 [1]: 2800 nM | IC50 [2]: > 10000 nM | IC50 (Mu-type opioid receptor): > 10000 nM

COc1cccc([C@]2(O)CCCC[C@H]2CN(C)CCNC(=O)c2cc(Cl)c(N)cc2OC)c1
IC50 [1]: 4900 nM | IC50 [2]: > 10000 nM | IC50 (Mu-type opioid receptor): > 10000 nM

COc1cc(N)c(Cl)cc1C(=O)N[C@H]1CCN(C[C@@H]2CCCC[C@@]2(O)c2cccc(O)c2)C[C@H]1OC
IC50 [1]: 18 nM | IC50 [2]: 9900 nM | IC50 (Mu-type opioid receptor): 410 nM | EC50 [3]: 90 nM

COc1cc(N)c(Cl)cc1C(=O)N[C@H]1CCN(C[C@H]2CCCC[C@]2(O)c2cccc(O)c2)C[C@H]1OC
IC50 [1]: 390 nM | IC50 [2]: > 10000 nM | IC50 (Mu-type opioid receptor): > 10000 nM

COc1cc(N)c(Cl)cc1C(=O)NCCN(C)CC1CCCCC1(O)c1cccc(O)c1 (racemic)
IC50 [1]: 2800 nM | IC50 [2]: > 10000 nM | IC50 (Mu-type opioid receptor): 190 nM

COc1cc(N)c(Cl)cc1C(=O)NC1CCNCC1OC (racemic) [NORCISAPRIDE]
IC50 [1]: 1600 nM | IC50 [2]: 19 nM | EC50 [3]: 290 nM | EC50 [4]: 2300 nM
